The results in this text go back to US20250049891A1, “NOVEL PEPTIDE DERIVATIVE DERIVED FROM ADIPONECTIN AND USE THEREOF” (SEOUL NATIONAL UNIVERSITY HOSPITAL, priority 2021, published 2025).

≈ marks a conversion by molar mass, not a printed value. Peptide text beside a SMILES is read from it.

One data set has as its target T1, adiponectin receptor 1 (Mus musculus, UniProt Q91VH1).
T1 construct: a mouse adipocyte cell line 3T3-L1 was treated with siRNA of an adiponectin receptor 1 to be knocked down; endogenous in cells; host or cells: 3T3-L1 mouse adipocyte cell line
T1 sequence (Q91VH1 1-375): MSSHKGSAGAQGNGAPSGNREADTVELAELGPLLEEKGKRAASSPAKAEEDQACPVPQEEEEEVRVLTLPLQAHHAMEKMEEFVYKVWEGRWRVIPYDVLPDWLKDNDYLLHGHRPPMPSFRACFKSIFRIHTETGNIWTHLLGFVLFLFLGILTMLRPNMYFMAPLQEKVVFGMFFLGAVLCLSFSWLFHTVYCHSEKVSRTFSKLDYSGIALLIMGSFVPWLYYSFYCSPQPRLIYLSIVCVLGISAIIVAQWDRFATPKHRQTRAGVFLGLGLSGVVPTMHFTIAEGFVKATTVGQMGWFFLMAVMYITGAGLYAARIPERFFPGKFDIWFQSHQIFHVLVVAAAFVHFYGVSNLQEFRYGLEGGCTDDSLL
Description: AMPK phosphorylation activity after knockdown of adiponectin receptor 1 (siRNA, Western blot). The format is cell-based. Particulars: 3T3-L1, adiponectin receptor 1 siRNA, 10 μM, 24 hours. Here is the method:
In order to verify whether the peptide derivative of the present disclosure bound to an adiponectin receptor 1, a mouse adipocyte cell line 3T3-L1 was treated with siRNA of an adiponectin receptor 1 to be knocked down, and each of the peptide derivatives of the present disclosure was treated at 10 μM and cultured for 24 hours, and then cells were obtained. Thereafter, the proteins were extracted and it was confirmed by Western blot whether AMPK phosphorylation activity, which had been increased by the peptide derivatives, was lost.

For data set [1], the system named is AMPK phosphorylation. Description: AMPK phosphorylation activity in mouse adipocytes (Western blot). Type of data set: cell-based. The conditions noted are these: 3T3-L1, 10 μM, 24 hours; for AMPK phosphorylation activity (fold change): APN5 = 1.0. Here is the method: There were confirmed effects of the peptide derivatives of the present disclosure on the expression and receptor activity of adiponectin in mouse adipocytes as a main adiponectin production site. A mouse adipocyte cell line 3T3-L1 was treated with each of the peptide derivatives of the present disclosure at a concentration of 10 μM and cultured for 24 hours, and then cells were obtained. Thereafter, the proteins were extracted and the effect on AMPK phosphorylation, which was responsible for the main downstream signaling of adiponectin, was confirmed by Western blot.
(In western blotting, separated proteins are transferred to a membrane and probed.)

The nature of the next data set: Solubility test. Particulars: PRISMA HT test buffer, pH 7.4, aqueous buffer, kinetic from dmso stock.
The nature of data set [2]: Metabolic stability test, human liver microsomes. The conditions noted are these: human, microsomes, pH 7.4. On the technique in general: Liver microsomes are a subcellular fraction often used to study metabolism.
Description: (§2) Three types of liver microsomes (Human, Rat, Mouse, 0.5 mg/ml), a 0.1 M phosphate buffer solution (pH 7.4), and the peptide derivative of the present disclosure were added at a concentration of 1 μM and pre-cultured at 37° C. for 5 minutes, and then added with an NADPH Regeneration system solution and cultured at 37° C. for 30 minutes. Thereafter, to terminate the reaction, the mixture was added with an acetonitrile solution containing an internal standard material (chlorpropamide), centrifuged for 5 minutes (14,000 rpm, 4° C.), and then the supernatant was injected into the LC-MS/MS system to analyze a substrate drug, and thus metabolic stability was evaluated.
(§3) The HPLC column was used with a Kinetex C18 column (2.1×100 mm, 1.7 μm particle size; Phenomenex, USA), and the mobile phase was distilled water (A) containing 0.1% formic acid and acetonitrile (B) containing 0.1% formic acid. TurboSpray Ionization was used as an ion source for MS/MS, and a triple quadruple type was used as a mass spectrometer. The produced metabolites were quantified using a multiple reaction monitoring (MRM) quantitative mode, and data analysis was performed using Analyst software (version 1.6.1).
In data set [3] the test system is 3T3-L1 adipocytes, RD muscle cells, keratinocytes, and fibroblasts. Description: Cytotoxicity in vitro (MTT). Type of data set: cell-based. The conditions noted are these: 0, 0.1, 1, 10, 100, and 500 μM, 24 hours.
Description: Using four types of cell lines 3T3-L1 adipocytes, RD muscle cells, keratinocytes, and fibroblasts, each cell was dispensed at 5×10^4 cells per well in a 24-well plate and cultured for 24 hours under each cell culture condition. The medium was discarded, washed with PBS, replaced with a new medium without 10% FBS, treated with the peptide derivative of the present disclosure at different concentrations of 0, 0.1, 1, 10, 100, and 500 μM, and cultured for 24 hours. The medium was carefully removed again and washed with PBS, and then added with an MTT reagent according to a manufacturer's method, reacted at room temperature for 30 minutes, and then absorbance was measured at 450 nm.
The nature of data set [4]: Metabolic stability test, mouse liver microsomes. Type of data set: in vitro ADME. Particulars: pH 7.4, mouse liver microsomes 0.5 mg/ml, NADPH, 37° C., 30 m.
Description: as §2
(§4) The amount of substrate remaining through the reaction was analyzed by LC-MS/MS using Agilent 1290 infinity series pump system (Agilent, USA) and Triple Quad 5500 LC-MS/MS system (Applied Biosystems, USA). The HPLC column was used with a Kinetex C18 column (2.1×100 mm, 1.7 μm particle size; Phenomenex, USA), and the mobile phase was distilled water (A) containing 0.1% formic acid and acetonitrile (B) containing 0.1% formic acid. TurboSpray Ionization was used as an ion source for MS/MS, and a triple quadruple type was used as a mass spectrometer. The produced metabolites were quantified using a multiple reaction monitoring (MRM) quantitative mode, and data analysis was performed using Analyst software (version 1.6.1).
Data set [5] is described as follows: Metabolic stability test, rat liver microsomes. Type of data set: in vitro ADME. Particulars: pH 7.4, rat liver microsomes 0.5 mg/ml, NADPH, 37° C., 30 m.
Description: as §2, §4
Data set [6] in a line: Plasma stability test, human plasma. The conditions noted are these: human, plasma.
Description: (§5) The peptide derivative of the present disclosure was added at a concentration of 1 μM to two types of plasma (human, rat), placed in each tube, and then cultured at 37° C. for time of 0, 30, 60, 120, and 240 minutes. The tube containing plasma was taken out every time, added with an acetonitrile solution containing an internal standard material (chlorpropamide), vortexed for 5 minutes, and centrifuged for 5 minutes (14,000 rpm, 4° C.). Thereafter, the plasma stability of the peptide derivative was evaluated by injecting the supernatant into an LC-MS/MS system and analyzing the drug at each time period. At this time, Procaine and Enalapril were used as reference materials for accuracy during a general plasma stability test.
(§6) After the reaction, the amount of drug remaining in each tube was analyzed by LC-MS/MS using Shimadzu Nexera XR system and TSQ vantage (Thermo). The HPLC column was used with a Luna C18 column (2.0×50 mm, 3 μm particle size; Phenomenex, US), and the mobile phase was distilled water (A) containing 0.1% formic acid and acetonitrile (B) containing 0.1% formic acid. Data analysis was performed using Xcalibur (version 1.6.1). In the result analysis, the plasma stability of each peptide derivative was expressed as % remaining for each time period for the sample without culture.
In data set [7] the test system is AMPK phosphorylation. Description: Concentration dependence of AMPK phosphorylation activity (Western blot). Type of data set: cell-based, mouse. The conditions noted are these: 3T3-L1, 0, 0.01, 0.1, 1, 10, and 100 μM, 24 hours. Here is the method:
A mouse adipocyte cell line 3T3-L1 was treated with the peptide derivative of the present disclosure at a series of concentrations of 0, 0.01, 0.1, 1, 10, and 100 μM and cultured for 24 hours, and then cells were obtained. Thereafter, the protein was extracted and the effect of the peptide derivative on AMPK phosphorylation in a concentration-dependent manner was confirmed by Western blot.

The nature of data set [8]: Plasma stability test, rat plasma. The conditions noted are these: rat, plasma.
Description: as §5, §6
The nature of data set [9]: in vitro. Particulars: rat, plasma.
Description: as §5, §6
The next data set is described as follows: physchem. The conditions noted are these: pH 7.4, aqueous buffer, kinetic from dmso stock.
The next data set has as its target CYP2C9 (Homo sapiens, UniProt P11712). The conditions noted are these: microsomes, 10 µM. Here is the method: (§1) Metabolites of each CYP isoenzyme indicator drug produced through the reaction were analyzed by LC-MS/MS using the Shimadzu Nexera XR system and TSQ vantage (Thermo).
The target of another data set is T2, CYP1A2 (Homo sapiens, UniProt P05177).
T2 sequence (P05177 1-516): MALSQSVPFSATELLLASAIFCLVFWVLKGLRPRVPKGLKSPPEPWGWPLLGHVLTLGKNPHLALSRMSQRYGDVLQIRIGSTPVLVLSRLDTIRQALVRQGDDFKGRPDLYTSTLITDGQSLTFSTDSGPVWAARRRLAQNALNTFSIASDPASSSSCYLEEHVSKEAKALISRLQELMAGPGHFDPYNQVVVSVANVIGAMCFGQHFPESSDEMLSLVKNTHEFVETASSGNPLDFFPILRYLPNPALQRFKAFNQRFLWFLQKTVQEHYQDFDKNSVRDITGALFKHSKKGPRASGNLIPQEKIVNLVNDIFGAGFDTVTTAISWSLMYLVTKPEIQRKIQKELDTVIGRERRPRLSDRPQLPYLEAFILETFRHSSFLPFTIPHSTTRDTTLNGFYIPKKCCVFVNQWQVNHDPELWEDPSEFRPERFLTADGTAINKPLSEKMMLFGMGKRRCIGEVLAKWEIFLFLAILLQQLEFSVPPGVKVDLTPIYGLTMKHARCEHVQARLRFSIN
The conditions noted are these: microsomes, 10 µM. Here is the method: as §1

The next data set deals with CYP2D6 (Homo sapiens, UniProt P10635). The conditions noted are these: microsomes, 10 µM. Here is the method:
as §1

For a further data set, the target named is CYP2C19 (Homo sapiens, UniProt P33261). Particulars: microsomes, 10 µM. Here is the method: as §1
In the next data set the target is CYP3A4 (Homo sapiens, UniProt P08684). Particulars: microsomes, 10 µM. Here is the method: as §1
Data set [10] is described as follows: in vitro. The conditions noted are these: human, microsomes, pH 7.4.
Description: as §2, §3
Data set [11] can be described thus: in vitro. Particulars: human, plasma.
Description: as §5, §6

As usually defined, the solubility is the dissolved amount per volume that the medium holds. Read a high solubility as much dissolved substance. By share remaining is commonly meant what is left of the initial amount, in per cent. Read a high share remaining as greater stability.

Sequence of CYP2D6 (P10635 whole entry): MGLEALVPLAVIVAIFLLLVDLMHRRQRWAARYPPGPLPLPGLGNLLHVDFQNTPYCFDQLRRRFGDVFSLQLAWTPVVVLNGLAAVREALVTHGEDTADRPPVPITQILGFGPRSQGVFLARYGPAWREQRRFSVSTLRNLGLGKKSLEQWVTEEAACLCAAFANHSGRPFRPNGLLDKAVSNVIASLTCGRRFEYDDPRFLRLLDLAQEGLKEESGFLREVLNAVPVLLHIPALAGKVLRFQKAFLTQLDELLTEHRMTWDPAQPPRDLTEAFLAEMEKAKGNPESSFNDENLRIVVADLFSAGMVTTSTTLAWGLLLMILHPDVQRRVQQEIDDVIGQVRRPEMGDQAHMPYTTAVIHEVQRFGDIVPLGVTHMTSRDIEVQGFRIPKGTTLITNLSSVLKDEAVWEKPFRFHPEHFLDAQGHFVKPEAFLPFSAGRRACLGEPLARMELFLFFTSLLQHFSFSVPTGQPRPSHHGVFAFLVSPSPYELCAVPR
Sequence of CYP2C9 (P11712 whole entry): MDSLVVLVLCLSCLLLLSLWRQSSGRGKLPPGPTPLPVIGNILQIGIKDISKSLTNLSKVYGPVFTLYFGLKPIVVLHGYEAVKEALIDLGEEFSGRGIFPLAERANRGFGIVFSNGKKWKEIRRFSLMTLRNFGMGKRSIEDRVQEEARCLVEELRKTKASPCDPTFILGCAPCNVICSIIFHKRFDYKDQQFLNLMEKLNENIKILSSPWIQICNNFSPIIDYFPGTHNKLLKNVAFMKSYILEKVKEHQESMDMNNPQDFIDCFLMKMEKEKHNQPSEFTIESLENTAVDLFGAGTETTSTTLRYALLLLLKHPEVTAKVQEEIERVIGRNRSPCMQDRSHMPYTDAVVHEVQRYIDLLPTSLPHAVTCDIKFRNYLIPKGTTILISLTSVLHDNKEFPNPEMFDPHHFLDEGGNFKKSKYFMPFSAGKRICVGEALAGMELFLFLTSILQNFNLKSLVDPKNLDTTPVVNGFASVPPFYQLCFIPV
Sequence of CYP2C19 (P33261 whole entry): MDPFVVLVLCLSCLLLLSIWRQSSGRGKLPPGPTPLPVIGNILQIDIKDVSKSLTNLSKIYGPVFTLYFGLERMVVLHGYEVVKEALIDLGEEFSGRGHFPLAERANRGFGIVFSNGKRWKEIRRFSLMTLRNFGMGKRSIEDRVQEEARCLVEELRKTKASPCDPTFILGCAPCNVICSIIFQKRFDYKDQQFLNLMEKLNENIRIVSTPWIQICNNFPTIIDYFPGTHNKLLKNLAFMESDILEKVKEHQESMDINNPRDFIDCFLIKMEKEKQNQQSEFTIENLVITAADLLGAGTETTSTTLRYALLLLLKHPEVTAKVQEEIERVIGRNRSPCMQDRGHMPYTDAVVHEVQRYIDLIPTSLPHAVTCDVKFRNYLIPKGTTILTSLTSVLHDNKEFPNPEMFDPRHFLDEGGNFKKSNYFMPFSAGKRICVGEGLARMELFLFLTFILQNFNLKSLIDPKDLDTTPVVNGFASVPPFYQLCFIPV
Sequence of CYP3A4 (P08684 whole entry): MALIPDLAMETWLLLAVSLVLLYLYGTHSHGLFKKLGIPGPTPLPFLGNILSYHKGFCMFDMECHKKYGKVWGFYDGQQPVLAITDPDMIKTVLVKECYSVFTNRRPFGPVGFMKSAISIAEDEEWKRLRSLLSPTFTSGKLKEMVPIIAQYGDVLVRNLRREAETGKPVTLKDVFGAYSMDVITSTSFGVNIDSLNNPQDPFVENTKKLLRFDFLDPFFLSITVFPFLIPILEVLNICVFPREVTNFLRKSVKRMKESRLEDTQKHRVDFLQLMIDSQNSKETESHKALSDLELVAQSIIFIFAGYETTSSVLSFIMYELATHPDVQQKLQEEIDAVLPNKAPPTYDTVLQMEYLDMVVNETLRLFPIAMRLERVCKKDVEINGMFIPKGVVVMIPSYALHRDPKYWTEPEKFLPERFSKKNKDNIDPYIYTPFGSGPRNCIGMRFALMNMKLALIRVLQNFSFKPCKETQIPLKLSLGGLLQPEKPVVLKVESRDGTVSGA
Description for Solubility test: (§7) A PRISMA HT solution was diluted in distilled water at a ratio of 1:40, and then used as a test buffer by adjusting the pH to 7.4.
(§8) 10 mL of the prepared test material was diluted in 190 μL of isopropyl alcohol and prepared. In addition, 75 mL of the test solution and 70 mL of isopropyl alcohol were mixed to be used as a blank sample, and 5 mL of the test material diluted in isopropyl alcohol was added to the blank sample. After the diluted sample was mixed, the absorbance was measured and used as an initial test value. […] Thereafter, the precipitate was removed from the sample using a filter plate, 74 mL of the filtered sample was added with 75 mL of isopropyl alcohol, and then the absorbance was measured and used as the sample value.
(§9) The solubility value of the test material was analyzed using a msol Explore (Solubility explorer program) after measuring the absorbance of each sample through a microplate reader. The average and standard deviation of the experimental values (n=3) repeated three times were calculated using the Excel program.
Description for physchem: as §7, §8, §9

As for `CC(C)CC(NC(=O)CN)C(=O)NC(Cc1ccc(O)cc1)C(=O)NC(Cc1ccc(O)cc1)C(=O)N(C)C(Cc1ccccc1)C(N)=O` (stereo not shown) [DS-48, NH2-GLYYF(N-Me)-NH2], on adiponectin receptor 1, the “AMPK phosphorylation activity after knockdown of the adiponectin receptor 1” value is reported as “decreased the AMPK phosphorylation activity after knockdown of the adiponectin receptor 1”. Further, the “AMPK phosphorylation activity (fold change)” value in the data set with AMPK phosphorylation [1] was found to be 1.5 fold change. Also, the “AMPK phosphorylation activity compared to APN5 (in words)” value in the data set with AMPK phosphorylation [1] (compared to APN5) is “significant effect of increasing AMPK phosphorylation activity”. In the data set “Solubility test”, this compound yielded a solubility at 24 h of 334 µg/mL (≈ 495 µM). Moreover, the fraction remaining at 0.5 h, 1 μM in data set [2] was 21.6%; in [4], 20.6%; in [5] it was 2.8%; in data set [6], 1.1%; in [8], > 100%. The cytotoxicity result in data set [3] is listed as “no toxicity”. The fraction remaining at 2 h, 1 μM in data set [6] was < 1%; in data set [8], 84.9%. The “concentration dependence of AMPK phosphorylation activity” value in the data set with AMPK phosphorylation [7] is listed as “increased AMPK phosphorylation activity in a concentration-dependent manner”.

Regarding `CC(=O)NC(CC(=O)O)C(=O)NC(Cc1ccc(O)cc1)C(=O)NC(Cc1ccc(O)cc1)C(=O)NC(Cc1ccccc1)C(=O)O` (stereo not shown) [DS-28, AcNH-DYYF-OH] (Ac-DYYF-OH; configuration not given here), the amount remaining at 0.5 h, 1 μM in the data set “in vitro [9]” is > 100%; in data set [4], 96.6%; in the data set “in vitro [10]”, 93.8%; in data set [5] it was 85.8%; in the data set “in vitro [11]”, 17.6%. Further, the fraction remaining at 2 h, 1 μM in the data set “in vitro [9]” is > 100%; in the data set “in vitro [11]”, 3.1%. Moreover, in the data set with AMPK phosphorylation [1], the “AMPK phosphorylation activity (fold change)” value was determined as 1.9 fold change. This compound also yielded a solubility at 24 h in “physchem” of 321 µg/mL (≈ 495 µM). The “CYP inhibition (% of control activity) CYP2C9” value at CYP2C9 was 96.9 % of control activity. The “CYP inhibition (% of control activity) CYP1A2” value on CYP1A2 is 81.7 % of control activity. Besides, on CYP2D6, the “CYP inhibition (% of control activity) CYP2D6” value is given as 86.1 % of control activity. The “CYP inhibition (% of control activity) CYP2C19” value at CYP2C19 is recorded as 87.2 % of control activity. For the same compound, the “CYP inhibition (% of control activity) CYP3A4” value at CYP3A4 is given as 95.5 % of control activity. For the same compound, the “concentration dependence of AMPK phosphorylation activity” value in the data set with AMPK phosphorylation [7] was “increased AMPK phosphorylation activity in a concentration-dependent manner”.
